Data reported in patent publication US20100210836A1, “SMALL MOLECULE INHIBITORS OF LYMPHOID TYROSINE PHOSPHATASE” (University of Southern California, priority 2009, published 2010).
Where two headings read alike, the source gives them in different places.

Legend:
PTP-PEST = target: T1, PTP-PEST (Homo sapiens, UniProt Q05209); test: Counter-screen phosphatase assay PTP-PEST; type: biochemical
T1 sequence (Q05209 2-323): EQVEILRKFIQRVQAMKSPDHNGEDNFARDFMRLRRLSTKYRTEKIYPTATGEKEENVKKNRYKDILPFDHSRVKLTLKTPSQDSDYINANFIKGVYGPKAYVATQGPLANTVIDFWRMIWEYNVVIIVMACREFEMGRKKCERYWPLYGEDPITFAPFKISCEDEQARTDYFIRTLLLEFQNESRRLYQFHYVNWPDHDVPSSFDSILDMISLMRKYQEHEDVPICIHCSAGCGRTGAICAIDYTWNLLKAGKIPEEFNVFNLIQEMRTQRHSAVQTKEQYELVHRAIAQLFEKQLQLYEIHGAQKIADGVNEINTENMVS

CD45 = target: T2, CD45 (Homo sapiens, UniProt P08575); test: Counter-screen phosphatase assay CD45; type: biochemical; details: Table II
T2 construct: The catalytic domain of CD45 was purchased from Biomol Inc; purchased Biomol Inc
T2 sequence (P08575 653-912 limits assumed): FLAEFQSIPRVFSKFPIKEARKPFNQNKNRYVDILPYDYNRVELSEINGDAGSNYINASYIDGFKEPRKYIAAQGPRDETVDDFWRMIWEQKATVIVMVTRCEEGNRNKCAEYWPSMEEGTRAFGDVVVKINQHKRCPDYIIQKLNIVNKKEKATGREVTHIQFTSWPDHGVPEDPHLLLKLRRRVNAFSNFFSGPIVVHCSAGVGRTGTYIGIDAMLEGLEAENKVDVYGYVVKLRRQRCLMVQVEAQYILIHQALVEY
Protocol: Materials, chemicals and enzymes. All chemicals were purchased from commercial sources unless otherwise noted. Compounds were dissolved in DMSO, and stock solutions were stored at −20° C. The catalytic domain of CD45 was purchased from Biomol Inc.

LMPTP-A = target: T3, LMPTP-A (Homo sapiens, UniProt P24666); test: biochemical
T3 sequence (P24666 1-158): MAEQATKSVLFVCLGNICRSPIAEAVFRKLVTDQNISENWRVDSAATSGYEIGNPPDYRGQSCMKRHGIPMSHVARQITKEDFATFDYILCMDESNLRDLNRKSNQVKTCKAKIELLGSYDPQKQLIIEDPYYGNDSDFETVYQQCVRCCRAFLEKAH

LYP/PTPN22 = target: T4, LYP/PTPN22 (Homo sapiens, UniProt Q9Y2R2); test: biochemical
T4 construct: catalytic domains of LYP (aa 2-309) and PTP-PEST (aa 2-323, PEST); 6xHis (N, cleaved yes); made in house; host or cells: E. coli BL21
T4 sequence (Q9Y2R2 2-309): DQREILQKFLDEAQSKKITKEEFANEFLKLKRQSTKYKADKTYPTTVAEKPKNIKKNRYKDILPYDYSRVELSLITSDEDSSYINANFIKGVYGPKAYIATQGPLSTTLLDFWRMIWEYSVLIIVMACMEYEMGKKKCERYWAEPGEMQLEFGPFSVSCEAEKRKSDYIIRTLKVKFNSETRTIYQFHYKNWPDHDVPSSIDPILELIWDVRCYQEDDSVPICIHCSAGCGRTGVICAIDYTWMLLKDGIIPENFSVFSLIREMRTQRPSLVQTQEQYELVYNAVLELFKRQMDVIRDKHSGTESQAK
Protocol: Chemical Library Screening for LYP Inhibitors. A library consisting of a highly diverse set of 4,000 compounds was screened in a 96-well format in an assay specific for LYP activity. […] The reaction mixture with the compounds was incubated for 25 min at 37° C. […] All assays were done in triplicate. The IC50 values were then determined for each drug from a plot of log [drug concentration] versus percentage of enzyme inhibition. Absorbance data were measured using a Molecular Devices Emax Precision Microplate reader.
Identification of Compounds as LYP Inhibitors. We initially screened a library of 4000 drug-like small-molecule compounds against LYP/PTPN22, using p-nitrophenyl phosphate (pNPP) as a substrate. The ability of the library members to inhibit LYP/PTPN22 catalyzed hydrolysis of pNPP was measured in a buffer containing 50 mM Bis-Tris pH 6.0, 1 mM DTT at 37° C.

HePTP = target: T5, HePTP (Homo sapiens, UniProt P35236); test: biochemical
T5 sequence (P35236 65-360): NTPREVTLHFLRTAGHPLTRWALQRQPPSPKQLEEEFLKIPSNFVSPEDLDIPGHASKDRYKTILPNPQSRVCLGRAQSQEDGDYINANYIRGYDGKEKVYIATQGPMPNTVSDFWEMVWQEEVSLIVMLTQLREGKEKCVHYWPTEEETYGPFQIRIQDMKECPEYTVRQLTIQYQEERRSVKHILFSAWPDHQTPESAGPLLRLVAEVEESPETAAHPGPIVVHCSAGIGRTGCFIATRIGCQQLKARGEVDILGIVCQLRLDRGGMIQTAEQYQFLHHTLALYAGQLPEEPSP

[1] = test system: phosphorylation of Lck at Tyr394; test: Anti-pSrc (Tyr416) immunoblot of thymocytes from PTPN22-/- mice; details: 50 μM, 1 h, anti-CD3/anti-CD4 plus streptavidin
Protocol: (§1) The volume of DMSO added was held constant at less than 2% of the total volume. Thymocytes pre-incubated with DMSO or inhibitor were divided into 200 μL aliquots containing 10×10^6 cells, treated with biotinylated CD3 and CD4 antibodies for 30 min and stimulated with the crosslinker, streptavidin for 1.5 min, or left untreated.
(§2) Aliquots of lysates were suspended in SDS sample buffer, heated at 95° C. for 5 minutes and the boiled samples run on 10% SDS-polyacrylamide gels. Proteins resolved by gel electrophoresis were transferred onto nitrocellulose membranes (Hybond ECL, GE Healthcare), using appropriate dilutions of unconjugated primary antibodies followed by HRP-conjugated secondary antibodies (purchased from GE Healthcare). Blots were developed with the enhanced chemiluminescence detection system, ECL-Plus, following manufacturers directions.
(§3) In parallel, the compound was also tested on T cells from normal PTPN22+/+ mice.

ERK1/2 phosphorylation = test: Anti-pERK1/2 blot of JTAg cells; details: 50 μM, 1 h
Protocol: (§4) The volume of DMSO added was held constant at less than 2% of the total volume. JTAg cells pre-incubated with DMSO or inhibitor were divided into 400 μL aliquots containing 10×10^6 cells and stimulated with supernatants of C305 hybridoma (31) for 2 min or left untreated. […] The total protein concentration in each cell lysate was determined by the Bradford protein assay (Bio-Rad) in order to normalize the amount of protein used in SDS-PAGE.
as §2

[2] = test system: phosphorylation of ZAP-70; test: Anti-pZAP (Tyr319) blot of JTAg cells; details: 50 μM, 1 h
Protocol: as §4, §2

[3] = test system: phosphorylation of Lck at Tyr394; test: Anti-pSrc (Tyr416) immunoblot of thymocytes from PTPN22+/+ mice; details: 50 μM, 1 h, anti-CD3/anti-CD4 plus streptavidin
Protocol: as §1, §2, §3

[4] = test system: TCR-induced phosphorylation of SLP-76; test: Phospho-flow cytometry of JTAg cells, anti-pSLP76 (Tyr128); details: 50 μM, 1 h, compared to control
Protocol: Phosphoflow cytometry. Phospho-flow cytometry was performed on JTAg cells following published protocols (BD Biosciences). […] Cell fluorescence was assessed on a Cytomics FC500 cytometer (Beckman Coulter) at the USC Immune Monitoring Core. Data Analysis and graph preparation were carried using FlowJo (Tree Star, Inc., Ashland, Oreg.).

[5] = LYP IC50, Table IV, analogues of E3P13
[6] = selectivity, ratio PEST IC50 / LYP IC50, Table IV

SMILES	IC50 (PTP-PEST; read-out: PEST IC50)	PEST_LYP (LYP/PTPN22)	IC50 (LYP/PTPN22; LYP IC50)	IC50 (LYP/PTPN22; [5])	PEST_LYP (LYP/PTPN22; [6])	other results
COc1ccc(-n2ncc3c(SCC(=O)N4c5ccccc5CC4C)ncnc32)cc1 (racemic) [B11P32]	–	–	–	–	–	IC50 (PTP-PEST; Table II, read-out: PTP-PEST IC50): > 40 µM; IC50 (CD45): > 90 µM; IC50 (LMPTP-A): > 90 µM
COc1ccc2cc(C(c3nnnn3C3CCCC3)N3CCCC4(CCCCC4)C3)c(=O)[nH]c2c1 (stereo not shown) [compound 26]	31.7 µM	1.74	18.2 µM	–	–	–
Cc1cc(C)c2[nH]c(=O)c(C(c3nnnn3C3CCCC3)N3CCN(C(c4ccccc4)c4ccccc4)CC3)cc2c1 (stereo not shown) [compound 8]	9.57 µM	0.98	9.72 µM	–	–	–
Cc1cc(C)c2cc([C@H](c3nnnn3C(C)(C)C)N3CCCC4(CCCCC4)C3)c(=O)[nH]c2c1 [compound 28]	26.1 µM	–	–	19.7 µM	1.33	–
Cc1cc(C)c2[nH]c(=O)c([C@H](c3nnnn3C(C)(C)C)N3CCCC4(CCCCC4)C3)cc2c1 [compound 19]	30.8 µM	–	–	13.6 µM	2.27	–
Cc1ccc2cc([C@@H](c3nnnn3C3CCCC3)N3CCCCC3)c(=O)[nH]c2c1 [compound 44]	68.5 µM	–	–	32.5 µM	2.11	–
O=C(CSc1nc(C2CC2)nc2sc3c(c12)CCCC3)NCc1ccc2c(c1)OCO2 [G8P15]	–	–	–	–	–	IC50 (HePTP): > 40 µM; IC50 (CD45): > 90 µM; IC50 (LMPTP-A): > 90 µM
Cc1ccc2[nH]c(=O)c([C@H](c3nnnn3C3CCCC3)N3CCC(C)CC3)cc2c1 [compound 32]	31.3 µM	1.52	20.6 µM	–	–	–
Cc1ccc2[nH]c(=O)c(C(c3nnnn3C3CCCC3)N3CCCC4(CCCCC4)C3)cc2c1 (racemic) [E3P13]	–	–	–	–	–	phosphorylation of Lck at Tyr394 [1]: no effect; ERK1/2 phosphorylation (ERK1/2 phosphorylation): increased ERK1/2 phosphorylation; TCR-stimulated phosphorylation of ZAP-70 (Tyr319) [2]: increased TCR-stimulated phosphorylation of ZAP-70; Lck phosphorylation at Tyr394 [3]: increased Lck phosphorylation at Tyr394; TCR-induced SLP-76 phosphorylation [4]: higher levels of TCR-induced SLP-76 phosphorylation
Cc1cccc2cc(C(c3nnnn3C3CCCC3)N3CCCC4(CCCCC4)C3)c(=O)[nH]c12 (stereo not shown) [compound 22]	21.1 µM	1.34	15.8 µM	–	–	–
Cc1ccc2cc([C@H](c3nnnn3CC3CCCC3)N3CCCC4(CCCCC4)C3)c(=O)[nH]c2c1 [compound 23]	38 µM	–	–	17.1 µM	2.22	–
Cc1ccc2[nH]c(=O)c(C(c3nnnn3C3CCCC3)N3CCN(C(c4ccccc4)c4ccccc4)CC3)cc2c1 (stereo not shown) [compound 3]	8.71 µM	1.38	6.3 µM	–	–	–
Cc1ccc2cc(C(c3nnnn3C3CCCC3)N3CCN(C(c4ccccc4)c4ccccc4)CC3)c(=O)[nH]c2c1C (stereo not shown) [compound 6]	9.8 µM	1.07	9.13 µM	–	–	–
Cc1ccc2cc(C(c3nnnn3C3CCCC3)N(Cc3ccccc3)Cc3ccc(C(C)C)cc3)c(=O)[nH]c2c1 (stereo not shown) [compound 4]	9.96 µM	1.31	7.62 µM	–	–	–
Cc1cccc2cc(C(c3nnnn3C3CCCC3)N3CCN(C(c4ccccc4)c4ccccc4)CC3)c(=O)[nH]c12 (stereo not shown) [compound 17]	10.1 µM	0.76	13.3 µM	–	–	–
Cc1ccc2cc(C(c3nnnn3C3CCCC3)N3CCCC4(CCCCC4)C3)c(=O)[nH]c2c1 (stereo not shown) [compound 21]	21.8 µM	1.43	15.2 µM	–	–	–
Cc1ccc2[nH]c(=O)c([C@H](c3nnnn3C3CCCC3)N3CCN(c4ccccc4)CC3)cc2c1 [compound 47]	32.5 µM	0.89	36.5 µM	–	–	–
Cc1ccc2[nH]c(=O)c([C@@H](c3nnnn3C3CCCC3)N3CCc4ccccc4C3)cc2c1 [compound 39]	39 µM	–	–	30.5 µM	1.28	–
Cc1ccc2cc(C(c3nnnn3C3CCCC3)N3CCCC4(CCCCC4)C3)c(=O)[nH]c2c1C (stereo not shown) [compound 13]	16.1 µM	1.33	12.1 µM	–	–	–
CCC(C)(C)n1nnnc1[C@@H](c1cc2cc(C)cc(C)c2[nH]c1=O)N1CCCC2(CCCCC2)C1 [compound 12]	20.1 µM	–	–	11.9 µM	1.69	–
Cc1ccc2cc([C@H](c3nnnn3C3CCCC3)N3CCC[C@@H](C)C3)c(=O)[nH]c2c1 [compound 43]	80.3 µM	–	–	31.9 µM	2.52	–
Cc1ccc2[nH]c(=O)c([C@H](c3nnnn3C3CCCC3)N3CCN(c4ccccc4F)CC3)cc2c1 [compound 36]	23.2 µM	0.92	–	–	–	–
O=c1[nH]c2ccccc2cc1[C@@H](c1nnnn1C1CCCC1)N1CCc2ccccc2C1 [compound 37]	31.5 µM	–	–	28 µM	1.13	–
CCC(C)(C)n1nnnc1[C@@H](c1cc2ccc(C)cc2[nH]c1=O)N1CCCC2(CCCCC2)C1 [compound 34]	34.2 µM	–	–	21.4 µM	1.6	–
Cc1ccc2[nH]c(=O)c([C@@H](c3nnnn3C3CCCC3)N(CCc3ccccc3)Cc3ccccc3)cc2c1 [compound 16]	19.7 µM	–	–	13.3 µM	1.46	–
Cc1cc(C)c2[nH]c(=O)c(C(c3nnnn3C3CCCC3)N3CCCC4(CCCCC4)C3)cc2c1 (stereo not shown) [compound 30]	31.1 µM	1.53	20.4 µM	–	–	–
COc1ccc(N2CCN([C@H](c3cc4cc(C)ccc4[nH]c3=O)c3nnnn3C3CCCC3)CC2)cc1 [compound 42]	40.5 µM	1.27	31.7 µM	–	–	–
CCC(C)(C)n1nnnc1[C@@H](c1cc2ccc(OC)cc2[nH]c1=O)N1CCCC2(CCCCC2)C1 [compound 35]	29.9 µM	–	–	22.5 µM	1.33	–
